Laboratory results reported in ChEMBL document CHEMBL1135364, “Synthesis and structure-activity relationships of oxime neurokinin antagonists: discovery of potent arylamides” (Bioorg Med Chem Lett, 2002).

What was measured:
Substance-P receptor [1] = molecular target: T1, Substance-P receptor (Homo sapiens, UniProt P25103); experiment: Tested for binding affinity against neurokinin 1 (NK1) receptor
Substance-K receptor [2] = molecular target: T2, Substance-K receptor (Homo sapiens, UniProt P21452); experiment: Binding affinity test against Neurokinin 2 (NK2) receptor
T2 sequence (P21452 whole entry): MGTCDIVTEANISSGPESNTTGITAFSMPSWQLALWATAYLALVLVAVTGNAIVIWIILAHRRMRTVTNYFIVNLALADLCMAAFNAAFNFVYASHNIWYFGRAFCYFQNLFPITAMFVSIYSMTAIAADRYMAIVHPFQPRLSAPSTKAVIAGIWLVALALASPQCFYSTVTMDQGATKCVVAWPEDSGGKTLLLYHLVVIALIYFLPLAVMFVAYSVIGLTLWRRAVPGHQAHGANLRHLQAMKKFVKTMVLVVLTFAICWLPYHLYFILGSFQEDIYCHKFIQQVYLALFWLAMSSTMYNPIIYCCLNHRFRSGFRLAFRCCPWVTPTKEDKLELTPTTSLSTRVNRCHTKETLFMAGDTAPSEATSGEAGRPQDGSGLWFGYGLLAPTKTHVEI

Substance-P receptor [3] = molecular target: T1, Substance-P receptor; experiment: Affinity for human Neurokinin 1 (NK1) receptor expressed in CHO cells at 1 uM; type: cell-based
[4] = molecular target: T3, Substance-K receptor (Homo sapiens) (UniProt P21452); experiment: Tested for binding affinity of compound against Neurokinin 2 (NK2) receptor at 1 uM
T3 sequence (whole entry): T2 sequence (P21452 whole entry)

Substance-K receptor [5] = molecular target: T2, Substance-K receptor; experiment: Tested for binding affinity of compound against Tachykinin receptor 2

T1 sequence (P25103 whole entry): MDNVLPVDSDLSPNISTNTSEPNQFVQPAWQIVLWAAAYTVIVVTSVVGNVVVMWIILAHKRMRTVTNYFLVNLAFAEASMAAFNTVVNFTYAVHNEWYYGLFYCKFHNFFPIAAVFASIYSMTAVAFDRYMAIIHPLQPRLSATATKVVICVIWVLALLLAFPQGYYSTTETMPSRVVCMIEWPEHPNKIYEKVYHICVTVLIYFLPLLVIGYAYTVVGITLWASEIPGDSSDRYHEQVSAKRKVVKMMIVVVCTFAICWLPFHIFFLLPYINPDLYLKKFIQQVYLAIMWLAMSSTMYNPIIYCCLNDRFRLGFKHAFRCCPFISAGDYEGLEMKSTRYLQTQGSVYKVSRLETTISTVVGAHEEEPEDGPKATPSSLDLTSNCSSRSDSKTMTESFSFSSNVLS

Row | Compound | Ki (Substance-P receptor [1]) | Ki (Substance-K receptor [2]) | other results
1 | CO/N=C(\CN(C)C(=O)Oc1cc(C(F)(F)F)cc(C(F)(F)F)c1)C(CCN1CCC(O)(c2ccccc2)CC1)c1ccc(Cl)c(Cl)c1 (stereo unspecified) | 6 nM | 11 nM | 
2 | CO/N=C(\COCc1noc(C(C)(C)C)n1)C(CCN1CCC(O)(c2ccccc2)CC1)c1ccc(Cl)c(Cl)c1 (stereo unspecified) |  | 1 nM | 
3 | CO/N=C(\CN(C)C(=O)c1cc(C)nc(N2CCCC2)c1)C(CCN1CCC(O)(c2ccccc2)CC1)c1ccc(Cl)c(Cl)c1 (stereo unspecified) | 2 nM | 3 nM | 
4 | CO/N=C(\COCc1cc(OC)c(OC)c(OC)c1)C(CCN1CCC(O)(c2ccccc2)CC1)c1ccc(Cl)c(Cl)c1 (stereo unspecified) |  | 28 nM | 
5 | CO/N=C(\COCc1cc(Br)cc(Br)c1)C(CCN1CCC(O)(c2ccccc2)CC1)c1ccc(Cl)c(Cl)c1 (stereo unspecified) | 10 nM | 15 nM | 
6 | CO/N=C(\CCCc1cc(C(F)(F)F)cc(C(F)(F)F)c1)C(CCN1CCC(O)(c2ccccc2)CC1)c1ccc(Cl)c(Cl)c1 (stereo unspecified) | 92 nM | 332 nM | 
7 | CO/N=C(\CN(C)C(=O)c1cc(OC)cc(OC)c1)C(CCN1CCC(O)(c2ccccc2)CC1)c1ccc(Cl)c(Cl)c1 (stereo unspecified) | 5 nM | 2 nM | 
8 | CO/N=C(\COCc1ccc2ccccc2c1)C(CCN1CCC(O)(c2ccccc2)CC1)c1ccc(Cl)c(Cl)c1 (stereo unspecified) |  | 12 nM | inhibition (Substance-P receptor [3]): 37%
9 | CO/N=C(\CN(C)C(=O)c1cc(C(F)(F)F)cc(C(F)(F)F)c1)C(CCN1CCC(O)(c2ccccc2)CC1)c1ccc(Cl)c(Cl)c1 (stereo unspecified) | 4 nM | 9 nM | 
10 | CO/N=C(\COCc1ccc(F)c2ccccc12)C(CCN1CCC(O)(c2ccccc2)CC1)c1ccc(Cl)c(Cl)c1 (stereo unspecified) |  | 21 nM | 
11 | CO/N=C(\CN(C)C(=O)Nc1cc(C(F)(F)F)cc(C(F)(F)F)c1)C(CCN1CCC(O)(c2ccccc2)CC1)c1ccc(Cl)c(Cl)c1 (stereo unspecified) | 5 nM | 8 nM | 
12 | CO/N=C(\CN(C)C(=O)c1cc(C)nc(C)c1)C(CCN1CCC(O)(c2ccccc2)CC1)c1ccc(Cl)c(Cl)c1 (stereo unspecified) |  | 6 nM | 
13 | CO/N=C(/COCc1cc(C(F)(F)F)cc(C(F)(F)F)c1)C(CCN1CCC(O)(c2ccccc2)CC1)c1ccc(Cl)c(Cl)c1 (stereo unspecified) |  |  | Ki (Substance-K receptor [5]): 21 nM
14 | CO/N=C(\COC(=O)c1cc(C(F)(F)F)cc(C(F)(F)F)c1)C(CCN1CCC(O)(c2ccccc2)CC1)c1ccc(Cl)c(Cl)c1 (stereo unspecified) | 168 nM | 25 nM | 
15 | CO/N=C(\COCc1ccccc1)C(CCN1CCC(O)(c2ccccc2)CC1)c1ccc(Cl)c(Cl)c1 (stereo unspecified) |  | 40 nM | inhibition (Substance-P receptor [3]): 33%
16 | CO/N=C(\COCc1cc(F)cc(C(F)(F)F)c1)C(CCN1CCC(O)(c2ccccc2)CC1)c1ccc(Cl)c(Cl)c1 (stereo unspecified) |  | 10 nM | 
17 | CO/N=C(\COCCc1cc(C(F)(F)F)cc(C(F)(F)F)c1)C(CCN1CCC(O)(c2ccccc2)CC1)c1ccc(Cl)c(Cl)c1 (stereo unspecified) | 39 nM | 118 nM | 
18 | CO/N=C(\COCc1cc(Cl)cc(Cl)c1)C(CCN1CCC(O)(c2ccccc2)CC1)c1ccc(Cl)c(Cl)c1 (stereo unspecified) |  | 6 nM | 
19 | CO/N=C(\COC/C=C/c1cc(C(F)(F)F)cc(C(F)(F)F)c1)C(CCN1CCC(O)(c2ccccc2)CC1)c1ccc(Cl)c(Cl)c1 (stereo unspecified) |  | 20 nM | inhibition (Substance-P receptor [3]): 36%
20 | CO/N=C(\COC(=O)Nc1cc(C(F)(F)F)cc(C(F)(F)F)c1)C(CCN1CCC(O)(c2ccccc2)CC1)c1ccc(Cl)c(Cl)c1 (stereo unspecified) | 32 nM | 35 nM | 
21 | CO/N=C(\COCC12CC3CC(CC(C3)C1)C2)C(CCN1CCC(O)(c2ccccc2)CC1)c1ccc(Cl)c(Cl)c1 (stereo unspecified) |  | 7 nM | inhibition (Substance-P receptor [3]): 0%
22 | CO/N=C(\CN(C)C(=O)c1cc(C)cc(C)c1)C(CCN1CCC(O)(c2ccccc2)CC1)c1ccc(Cl)c(Cl)c1 (stereo unspecified) | 1 nM | 2 nM | 

Continued, in another order:

Row | Ki (Substance-P receptor [1]) | Ki (Substance-K receptor [2]) | Compound | other results
23 | 5 nM | 8 nM | CO/N=C(\CN(C)C(=O)c1cc(OC)c(Br)c(OC)c1)C(CCN1CCC(O)(c2ccccc2)CC1)c1ccc(Cl)c(Cl)c1 (stereo unspecified) | 
24 |  | 4 nM | CO/N=C(\COCc1ccc(C(C)(C)C)cc1)C(CCN1CCC(O)(c2ccccc2)CC1)c1ccc(Cl)c(Cl)c1 (stereo unspecified) | inhibition (Substance-P receptor [3]): 6%
25 |  | 136 nM | CO/N=C(\COCc1ccccc1C)C(CCN1CCC(O)(c2ccccc2)CC1)c1ccc(Cl)c(Cl)c1 (stereo unspecified) | inhibition (Substance-P receptor [3]): 34%
26 | 50 nM | 130 nM | CO/N=C(\CNCc1cc(C(F)(F)F)cc(C(F)(F)F)c1)C(CCN1CCC(O)(c2ccccc2)CC1)c1ccc(Cl)c(Cl)c1 (stereo unspecified) | 
27 |  | 20 nM | CO/N=C(\COCc1ccc2ccc(C(F)(F)F)nc2c1)C(CCN1CCC(O)(c2ccccc2)CC1)c1ccc(Cl)c(Cl)c1 (stereo unspecified) | inhibition (Substance-P receptor [3]): 23%
28 |  | 21 nM | CO/N=C(\COCc1ccc2sc(C)nc2c1)C(CCN1CCC(O)(c2ccccc2)CC1)c1ccc(Cl)c(Cl)c1 (stereo unspecified) | inhibition (Substance-P receptor [3]): 48%
29 | 7 nM | 4 nM | CO/N=C(\CN(C)C(=O)c1cncc(Br)c1)C(CCN1CCC(O)(c2ccccc2)CC1)c1ccc(Cl)c(Cl)c1 (stereo unspecified) | 
30 | 81 nM |  | CO/N=C(\COc1cc(C(F)(F)F)cc(C(F)(F)F)c1)C(CCN1CCC(O)(c2ccccc2)CC1)c1ccc(Cl)c(Cl)c1 (stereo unspecified) | inhibition [4]: 31%
31 |  | 2 nM | CO/N=C(\CN(C)C(=O)c1ccc(C)s1)C(CCN1CCC(O)(c2ccccc2)CC1)c1ccc(Cl)c(Cl)c1 (stereo unspecified) | 
32 |  | 3 nM | CO/N=C(\CN(C)C(=O)c1cc(OC)c(OC)c(OC)c1)C(CCN1CCC(O)(c2ccccc2)CC1)c1ccc(Cl)c(Cl)c1 (stereo unspecified) | 
33 |  | 43 nM | CO/N=C(\COCc1ccccn1)C(CCN1CCC(O)(c2ccccc2)CC1)c1ccc(Cl)c(Cl)c1 (stereo unspecified) | 
34 |  | 38 nM | CO/N=C(\COCc1ccc(-c2ccccc2)cc1)C(CCN1CCC(O)(c2ccccc2)CC1)c1ccc(Cl)c(Cl)c1 (stereo unspecified) | inhibition (Substance-P receptor [3]): 2%
35 | 6 nM | 167 nM | CO/N=C(\C(=O)N(C)Cc1cc(C(F)(F)F)cc(C(F)(F)F)c1)C(CCN1CCC(O)(c2ccccc2)CC1)c1ccc(Cl)c(Cl)c1 (stereo unspecified) | 
36 | 2 nM | 6 nM | CO/N=C(\CN(C)C(=O)c1cc(C)nc(-c2cccs2)c1)C(CCN1CCC(O)(c2ccccc2)CC1)c1ccc(Cl)c(Cl)c1 (stereo unspecified) | 
37 |  | 7 nM | CO/N=C(\CN(C)C(=O)c1ccc(N(C)C)c2ccccc12)C(CCN1CCC(O)(c2ccccc2)CC1)c1ccc(Cl)c(Cl)c1 (stereo unspecified) | 
38 |  | 8 nM | CO/N=C(\COCc1cc(C)cc(C)c1)C(CCN1CCC(O)(c2ccccc2)CC1)c1ccc(Cl)c(Cl)c1 (stereo unspecified) | 

Row | Ki (Substance-P receptor [1]) | Ki (Substance-K receptor [2]) | Compound | other results
39 |  | 130 nM | CO/N=C(\COCc1cc(C(C)(C)C)cc(C(C)(C)C)c1)C(CCN1CCC(O)(c2ccccc2)CC1)c1ccc(Cl)c(Cl)c1 (stereo unspecified) | inhibition (Substance-P receptor [3]): 19%
40 |  | 17 nM | CO/N=C(\COCc1ccc2nonc2c1)C(CCN1CCC(O)(c2ccccc2)CC1)c1ccc(Cl)c(Cl)c1 (stereo unspecified) | inhibition (Substance-P receptor [3]): 29%
41 |  | 13 nM | CO/N=C(\COCC1CCCCC1)C(CCN1CCC(O)(c2ccccc2)CC1)c1ccc(Cl)c(Cl)c1 (stereo unspecified) | inhibition (Substance-P receptor [3]): 21%
42 |  | 2 nM | CO/N=C(\CNC(=O)c1cc(C(F)(F)F)cc(C(F)(F)F)c1)C(CCN1CCC(O)(c2ccccc2)CC1)c1ccc(Cl)c(Cl)c1 (stereo unspecified) | 
43 |  | 100 nM | CO/N=C(\CO/C=C/c1cc(C(F)(F)F)cc(C(F)(F)F)c1)C(CCN1CCC(O)(c2ccccc2)CC1)c1ccc(Cl)c(Cl)c1 (stereo unspecified) | inhibition (Substance-P receptor [3]): 20%
44 |  | 4 nM | CO/N=C(\CN(C)C(=O)c1ccccc1OC)C(CCN1CCC(O)(c2ccccc2)CC1)c1ccc(Cl)c(Cl)c1 (stereo unspecified) | 
45 |  | 54 nM | CO/N=C(\CNC(=O)c1ccccc1OC)C(CCN1CCC(O)(c2ccccc2)CC1)c1ccc(Cl)c(Cl)c1 (stereo unspecified) | 
46 | 75 nM | 157 nM | CO/N=C(\C(C)OCc1cc(C(F)(F)F)cc(C(F)(F)F)c1)C(CCN1CCC(O)(c2ccccc2)CC1)c1ccc(Cl)c(Cl)c1 (stereo unspecified) | 
47 |  | 9 nM | CO/N=C(\COCc1ccc(C)cc1)C(CCN1CCC(O)(c2ccccc2)CC1)c1ccc(Cl)c(Cl)c1 (stereo unspecified) | inhibition (Substance-P receptor [3]): 48%
48 | 23 nM |  | CO/N=C(\CCc1cc(C(F)(F)F)cc(C(F)(F)F)c1)C(CCN1CCC(O)(c2ccccc2)CC1)c1ccc(Cl)c(Cl)c1 (stereo unspecified) | inhibition [4]: 51%
49 |  | 18 nM | CO/N=C(\COCc1cc(OC)cc(OC)c1)C(CCN1CCC(O)(c2ccccc2)CC1)c1ccc(Cl)c(Cl)c1 (stereo unspecified) | 
50 | 42 nM | 22 nM | CO/N=C(\CN(C)Cc1cc(C(F)(F)F)cc(C(F)(F)F)c1)C(CCN1CCC(O)(c2ccccc2)CC1)c1ccc(Cl)c(Cl)c1 (stereo unspecified) | 
51 | 2 nM | 4 nM | CO/N=C(\CN(C)C(=O)c1cc(Cl)cc(Cl)c1)C(CCN1CCC(O)(c2ccccc2)CC1)c1ccc(Cl)c(Cl)c1 (stereo unspecified) | 
52 | 435 nM | 286 nM | CO/N=C(\CN(C)S(=O)(=O)c1cc(C(F)(F)F)cc(C(F)(F)F)c1)C(CCN1CCC(O)(c2ccccc2)CC1)c1ccc(Cl)c(Cl)c1 (stereo unspecified) | 
53 | 2 nM | 1 nM | CO/N=C(\CN(C)C(=O)c1cc(C)nc(N(C)C)c1)C(CCN1CCC(O)(c2ccccc2)CC1)c1ccc(Cl)c(Cl)c1 (stereo unspecified) | 
54 |  | 42 nM | CO/N=C(\COCc1cc(F)cc(F)c1)C(CCN1CCC(O)(c2ccccc2)CC1)c1ccc(Cl)c(Cl)c1 (stereo unspecified) | 
